Source: patent US10238630B2, “Use of eribulin and poly (ADP ribose) polymerase (PARP) inhibitors as combination therapy for the treatment of cancer” (Eisai R&D Management Co., Ltd., priority 2014, dated 2019)
“Also recorded” adds a separate entry of the source. Structures can show the parent of a compound that is named as a salt.

What was measured:
[1] = system: HCC1806 human breast cancer xenografts; assay: Antitumor activity against subcutaneous HCC1806 human breast cancer xenografts in athymic mice; assay type: in vivo
Protocol: HCC1806 human triple negative breast cancer cells, wild type for BRCA and PTEN, were maintained in monolayer cultures in RPMI-1640 growth medium supplemented with 10% fetal bovine serum at 37° C. in a 5% CO2 humidified incubator. On the day of inoculation, cells were harvested by trypsinization, washed, and resuspended in ice-cold PBS. Female immunodeficient athymic mice were inoculated subcutaneously near the right axillary area using a 26-gauge needle with HCC1806 cells (2.5×10^6) in a 0.1 mL volume. A total of 60 mice, approximately 6 weeks old were implanted with cells.
E7449 and E7389 were evaluated as single agents and in combination for anti-tumor activity against HCC1806 human breast cancer xenografts in athymic mice. The experiment consisted of a vehicle-treated control group, an E7449 single agent-treated group, two groups treated with single agent E7389 and 2 combination drug-treated groups (Table 7). Each group was composed of 8 mice for a total of 48 mice on the first day of treatment. Sixty mice were inoculated with HCC1806 cells and on day 5 following implantation, tumor volumes were measured and mice were randomized into the 6 treatment groups based on tumor volume (average of 150 mm^3). Following randomization drug treatment was initiated (Day 5). E7449 was formulated in 0.5% methyl cellulose and orally administrated daily at 100 mg/kg based on body weight at 0.1 mL per 10 g. E7449 was administered once daily for 28 days (starting on Day 5) as a single agent or in combination with E7389. E7389 was formulated in saline and was administered intravenously once every 4 days 4 times (Day 5, 9, 13, and 17) at a dosage of 0.1 or 0.4 mg/kg as single agent or in combination with E7449, based on body weight at 0.1 mL per 10 g. The control group was treated with oral vehicle (0.5% methyl cellulose in water) daily and intravenous vehicle (saline) once every 4 days, 4 times. E7449 or vehicle was administered first and when dosing of all animals was complete E7389 was administered to animals receiving the combination.
Tumor dimensions were recorded twice per week starting at the initiation of drug treatment. […] The data generated consist of group mean tumor volumes and group mean body weights at each measurement.
Drug treatment was initiated following randomization on Day 5 (5 days post tumor implantation) and continued for 28 days. Animals whose tumor measurement reached ≥2 cm at the longest axis were euthanized prior to study termination. The study was terminated on Day 38. Statistical analysis was performed on Day 20.
Statistical analysis of the vehicle group (A) versus all drug treatment groups (B, C, D, E and F) was performed by a one way analysis of variance (ANOVA) for tumor volume followed by Dunnett's multiple comparison test. […]

[2] = system: MDA-MB-436 human breast cancer xenografts; assay: Antitumor activity against subcutaneous MDA-MB-436 human breast cancer xenografts in SCID mice (three studies); assay type: in vivo
Protocol: MDA-MB-436 human triple negative breast cancer cells are BRCA1 mutant and PTEN null. Cells were maintained in monolayer cultures in RPMI-1640 growth medium supplemented with 10% fetal bovine serum at 37° C. in a 5% CO2 humidified incubator. On the day of inoculation, cells were harvested by trypsinization, washed, and resuspended in ice-cold PBS. Female immunodeficient SCID mice were inoculated subcutaneously near the right axillary area with MDA-MB-436 cells (5×10^6) in a 1:1 ratio (50 μL each) with Matrigel™ in a volume of 0.1 mL in phosphate buffered saline, using a 26-gauge needle. A total of 125 mice, approximately 6 weeks old were implanted with MDA-MB-436 cells.
E7449, carboplatin and E7389 were evaluated as single agents and in combination for antitumor activity against MDA-MB-436 human breast cancer xenografts in SCID mice. Three separate studies were performed. The first experiment consisted of a vehicle control group, an E7449 single agent group, two groups treated with single agent E7389 and 2 combination drug-treated groups (Table 1). Thirty mice were inoculated with MDA-MB-436 cells and on Day 58 following implantation, tumor volumes were measured and mice were randomized into the 6 treatment groups based on tumor volume (average of 300 mm^3). Following randomization, drug treatment was initiated. Groups A to D were composed of 5 mice and groups E and F consisted of 4 mice for a total of 28 mice on the first day of treatment. E7449 was formulated in 0.5% methyl cellulose and orally administered once daily for 28 days (starting on Day 58) at 60 mg/kg based on body weight at 0.1 mL per 10 g. E7389 was formulated in saline and was intravenously administered once every 4 days, 4 times (Day 58, 62, 66, and 70) at a dosage of 0.4 or 1.6 mg/kg as single agent or in combination with E7449, based on body weight at 0.1 mL per 10 g. The control group was treated with oral vehicle (0.5% methyl cellulose in water) daily and intravenous vehicle (saline) once every 4 days, 4 times. E7449 or vehicle was administered first and when dosing of all animals was complete, E7389 was administered to animals receiving the combination.
The second experiment consisted of a vehicle control group, an E7449 single agent group, 2 groups treated with single agent carboplatin, and 2 combination drug-treated groups (Table 2). Thirty-five mice were inoculated with MDA-MB-436 cells and on Day 57, following implantation, tumor volumes were measured and mice were randomized into 6 treatment groups based on tumor volume (average of 250 mm^3). Following randomization drug treatment was initiated. Groups A to D were composed of 5 mice and groups E and F consisted of 6 mice for a total of 32 mice on the first day of treatment. E7449, formulated in 0.5% methyl cellulose was orally administered daily for 28 days (starting on Day 57), at 60 mg/kg based on body weight at 0.1 mL per 10 g. Carboplatin was formulated in saline and was intravenously administered once on the first day of treatment (Day 57) at a dosage of 15 or 60 mg/kg as a single agent or in combination with E7449 based on body weight at 0.1 mL per 10 g. The control group was treated with oral vehicle (0.5% methyl cellulose in water) daily and intravenous vehicle (saline) once on Day 57. E7449 or vehicle was administered first, and when dosing of all animals was complete carboplatin was administered to animals receiving the combination.
The third experiment consisted of a vehicle control group, 3 groups treated with single agent E7449, E7389, or carboplatin, 3 groups treated with double combinations of E7449+E7389, E7449+carboplatin, and E7389+carboplatin and a group treated with the three-drug combination (Table 3). Sixty mice were inoculated with MDA-MB-436 cells and on Day 41 following implantation, tumor volumes were measured and mice were randomized into 8 treatment groups based on tumor volume (average of 250 mm^3). Following randomization drug treatment was initiated.

C=C1C[C@@H]2CC[C@@]34C[C@H]5OC6[C@@H](O[C@H]7CC[C@H](CC(=O)C[C@@H]8[C@@H](OC)[C@@H](C[C@H](O)CN)O[C@H]8C[C@H]8O[C@@H](CC[C@@H]1O2)C[C@@H](C)C8=C)O[C@@H]7[C@@H]6O3)[C@H]5O4 [E7389, 11, 15:18,21:24,28-triepoxy-7,9-ethano-12,15-methano-9H,15H-furo[3,2-i]furo[2′,3′:5,6]pyrano[4,3-b] [1,4]dioxacyclopentacosin-5(4H)-one, 2-[(2S)-3-amino-2-hydroxypropyl]hexacosahydro-3-methoxy-26-methyl-20,27-bis(methylene)-, (2R,3R,3aS,7R,8aS,9S,10aR,11S,12R,13aR,13bS,15S,18S,21S,24S,26R,28R,29aS)-methanesulfonate (salt)]
antitumor effect (tumor volume) ([1]; E7389 0.1 mg/kg IV Q4Dx4, single agent): tumor growth inhibition | antitumor effect (tumor volume) ([1]; E7389 0.4 mg/kg IV Q4Dx4, single agent): tumor regression | antitumor effect (tumor volume), dose dependence ([1]; E7389 0.1 and 0.4 mg/kg IV Q4Dx4, single agent): Dose-dependent antitumor activity | antitumor effect (tumor volume) ([2]; E7449+E7389 study, E7389 0.4 mg/kg IV Q4Dx4, single agent): modest antitumor effect | antitumor effect (tumor volume) ([2]; E7449+E7389 study, E7389 1.6 mg/kg IV Q4Dx4, single agent): tumor regression | antitumor effect (tumor volume), dose dependence ([2]; E7449+E7389 study, E7389 0.4 and 1.6 mg/kg IV Q4Dx4, single agent): Dose dependent antitumor activity | antitumor effect (tumor volume) ([2]; triple combination study, E7389 0.2 mg/kg IV Q4Dx4, single agent, 0.2 mg/kg): did not significantly inhibit tumor growth

O=c1[nH]nc2c3c(cccc13)N=C(CN1Cc3ccccc3C1)N2 [E7449]
antitumor effect (tumor volume) ([1]; E7449 100 mg/kg PO QDx28, single agent, 100 mg/kg): no effect on tumor growth; also recorded: No antitumor activity | antitumor effect (tumor volume) ([2]; E7449+E7389 study, E7449 60 mg/kg PO QDx28, single agent): modest and statistically significant tumor growth inhibition | antitumor effect (tumor volume) ([2]; E7449+carboplatin study, E7449 60 mg/kg PO QDx28, single agent): modest and statistically significant tumor growth inhibition | antitumor effect (tumor volume) ([2]; triple combination study, E7449 60 mg/kg PO QDx28, single agent): statistically significant tumor growth inhibition
